biological target: EGFR (human) (UniProt P00533); assay: not given
Sequence (P00533 whole entry, looked up): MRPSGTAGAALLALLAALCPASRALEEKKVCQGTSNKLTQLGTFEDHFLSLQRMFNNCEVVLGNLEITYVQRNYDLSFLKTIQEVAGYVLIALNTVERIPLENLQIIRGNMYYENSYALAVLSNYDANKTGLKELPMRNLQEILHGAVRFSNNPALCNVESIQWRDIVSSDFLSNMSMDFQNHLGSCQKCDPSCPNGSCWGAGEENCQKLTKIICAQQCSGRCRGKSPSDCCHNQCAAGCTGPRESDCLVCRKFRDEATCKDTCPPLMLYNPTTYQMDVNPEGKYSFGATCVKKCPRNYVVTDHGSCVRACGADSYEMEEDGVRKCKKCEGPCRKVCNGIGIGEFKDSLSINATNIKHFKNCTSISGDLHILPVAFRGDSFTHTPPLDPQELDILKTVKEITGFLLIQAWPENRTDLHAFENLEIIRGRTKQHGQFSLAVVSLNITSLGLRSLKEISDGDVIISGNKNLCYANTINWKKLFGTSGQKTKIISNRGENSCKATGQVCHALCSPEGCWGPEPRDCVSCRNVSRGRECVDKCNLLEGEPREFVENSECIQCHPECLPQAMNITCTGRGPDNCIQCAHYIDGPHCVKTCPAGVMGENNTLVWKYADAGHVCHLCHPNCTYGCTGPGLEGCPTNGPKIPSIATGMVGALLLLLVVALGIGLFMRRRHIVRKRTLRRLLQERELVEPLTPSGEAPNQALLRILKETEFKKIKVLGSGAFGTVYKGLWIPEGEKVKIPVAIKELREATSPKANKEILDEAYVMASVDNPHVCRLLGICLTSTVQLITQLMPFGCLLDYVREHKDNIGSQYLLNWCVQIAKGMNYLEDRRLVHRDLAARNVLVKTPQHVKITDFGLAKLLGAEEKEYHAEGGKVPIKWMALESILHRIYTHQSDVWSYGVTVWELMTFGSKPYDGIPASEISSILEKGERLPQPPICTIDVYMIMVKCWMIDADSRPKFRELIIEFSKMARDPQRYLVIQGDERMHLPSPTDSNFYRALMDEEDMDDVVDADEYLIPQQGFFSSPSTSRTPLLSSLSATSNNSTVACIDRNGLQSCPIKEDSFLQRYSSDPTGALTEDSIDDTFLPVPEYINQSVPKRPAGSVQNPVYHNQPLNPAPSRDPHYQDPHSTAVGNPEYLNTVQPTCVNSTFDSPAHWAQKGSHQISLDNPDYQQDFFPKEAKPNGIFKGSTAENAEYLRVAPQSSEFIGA

Structure (SMILES)	IC50 [nM]
O=C(COc1ccc2ncnc(Nc3ccc(F)c(Cl)c3)c2c1)NO	≤ 100
C#Cc1cccc(Nc2ncnc3cc(OCCCCCCC(=O)NO)c(OC)cc23)c1	≤ 100
C[C@@H](Nc1ncnc2[nH]c(-c3ccc(NC(=O)CCNCCCCCC(=O)NO)cc3)cc12)c1ccccc1	≤ 100
C#Cc1cccc(Nc2ncnc3cc(OC)c(NC(=O)CCCCCCC(=O)NO)cc23)c1	≤ 100
C#Cc1cccc(Nc2ncnc3ccc(OCCCCC(=O)NO)cc23)c1	≤ 100
COc1cc2ncnc(Nc3ccc(F)c(Cl)c3)c2cc1OCCCCCC(=O)NO	≤ 100
COc1cc2ncnc(Nc3ccc(F)c(Cl)c3)c2cc1NC(=O)CCCCCCC(=O)NO	≤ 100
O=C(CCCCCOc1ccc2ncnc(Nc3ccc(F)c(Cl)c3)c2c1)NO	≤ 100
COc1cc2ncnc(Nc3ccc(F)c(Cl)c3)c2cc1OCCCC(=O)NO	≤ 100
O=C(CCCCCCOc1ccc2ncnc(Nc3ccc(OCc4cccc(F)c4)c(Cl)c3)c2c1)NO	≤ 100
C#Cc1cccc(Nc2ncnc3cc(OCCCCCCC(=O)NO)c(OCCOC)cc23)c1	≤ 100
C#Cc1cccc(Nc2ncnc3cc(OC)c(OCCCCCC(=O)NO)cc23)c1	≤ 100
COCCOc1cc2c(Nc3ccc(F)c(Cl)c3)ncnc2cc1OCCCCCCC(=O)NO	≤ 100
O=C(CCCCOc1ccc2ncnc(Nc3ccc(F)c(Cl)c3)c2c1)NO	≤ 100
C#Cc1cccc(Nc2ncnc3cc(OCCOC)c(OCCCCCCC(=O)NO)cc23)c1	≤ 100
O=C(CCCCCNCc1ccc(-c2ccc3ncnc(Nc4ccc(OCc5cccc(F)c5)c(Cl)c4)c3c2)o1)NO	≤ 100
C#Cc1cccc(Nc2ncnc3cc(OC)c(OCC(=O)NO)cc23)c1	≤ 100
COc1cc2ncnc(Nc3ccc(F)c(Cl)c3)c2cc1SCCCCC(=O)NO	≤ 100
COc1cc2ncnc(Nc3ccc(F)c(Cl)c3)c2cc1OCCOc1ccc(C(=O)NO)cc1	≤ 100
C#Cc1cccc(Nc2ncnc3ccc(OCC(=O)NO)cc23)c1	≤ 100

Structure (SMILES)	IC50 [nM]
COc1cc2ncnc(Nc3ccc(F)c(Cl)c3)c2cc1SCCCCCCC(=O)NO	≤ 100
O=C(CCOc1ccc2ncnc(Nc3ccc(F)c(Cl)c3)c2c1)NO	≤ 100
COCCOc1cc2ncnc(Nc3ccc(F)c(Cl)c3)c2cc1NC(=O)CCCC(=O)NO	≤ 100
COc1cc2ncnc(Nc3ccc(OCc4cccc(F)c4)c(Cl)c3)c2cc1OCCCCCCC(=O)NO	≤ 100
C#Cc1cc(Nc2ncnc3cc(OC)c(OCCCCCCC(=O)NO)cc23)ccc1O	≤ 100
C#Cc1cccc(Nc2ncnc3cc(OC)c(NC(=O)CCCC(=O)NO)cc23)c1	≤ 100
COc1cc2ncnc(Nc3ccc(F)c(Cl)c3)c2cc1OCCCCC(=O)NO	≤ 100
COCCOc1cc2ncnc(Nc3ccc(F)c(Cl)c3)c2cc1NC(=O)CCCCCCC(=O)NO	≤ 100
COc1cc2ncnc(Nc3ccc(F)c(Cl)c3)c2cc1CCCCCC(=O)NO	≤ 100
C#Cc1cccc(Nc2ncnc3cc(OC)c(NC(=O)CCCCC(=O)NO)cc23)c1	≤ 100
COc1cc2ncnc(Nc3ccc(F)c(Cl)c3)c2cc1OCCC(=O)NO	≤ 100
COc1cc2ncnc(Nc3ccc(F)c(Cl)c3)c2cc1NC(=O)CCCC(=O)NO	≤ 100
C[C@@H](Nc1ncnc2[nH]c(-c3ccc(NC(=O)CCNCCCCCCC(=O)NO)cc3)cc12)c1ccccc1	≤ 100
COCCOc1cc2ncnc(Nc3ccc(F)c(Cl)c3)c2cc1OCCCCCCC(=O)NO	≤ 100
COCCOc1cc2ncnc(Nc3ccc(F)c(Cl)c3)c2cc1NC(=O)CCCCC(=O)NO	≤ 100
C#Cc1cccc(Nc2ncnc3cc(OC)c(OCCC(=O)NO)cc23)c1	≤ 100
COc1cc2ncnc(Nc3ccc(F)c(Cl)c3)c2cc1OCC(=O)NO	≤ 100
C#Cc1cccc(Nc2ncnc3cc(OC)c(OCCCC(=O)NO)cc23)c1	≤ 100
O=C(CCCCCCOc1ccc2ncnc(Nc3ccc(F)c(Cl)c3)c2c1)NO	≤ 100

biological target: CDK2 (human) (UniProt P24941); assay: Enzyme Assay

Structure (SMILES)	IC50 [nM]
CC(C)(C)c1cnc(CSc2cnc(NC(=O)CCCC(=O)NO)s2)o1	≤ 100
CC(C)(C)c1cnc(CSc2cnc(NC(=O)CCCCC(=O)NO)s2)o1	≤ 100
CC(C)(C)c1cnc(CSc2cnc(NC(=O)Cc3ccc(OCCCCC(=O)NO)cc3)s2)o1	≤ 100
CC(C)(C)c1cnc(CSc2cnc(NC(=O)Cc3ccc(OCCCC(=O)NO)cc3)s2)o1	≤ 100
CC(C)(C)c1cnc(CSc2cnc(NC(=O)CCCCCC(=O)NO)s2)o1	≤ 100
CC(C)(C)c1cnc(CSc2cnc(NC(=O)CCCCCCC(=O)NO)s2)o1	≤ 100
